Test results taken from paper PMC6576746, “Rational discovery of dual-indication multi-target PDE/Kinase inhibitor for precision anti-cancer therapy using structural systems pharmacology” (PLoS Computational Biology, 2019).

Tests used:
Assay in all cases: biochemical
Design in all cases: DiscoverX KinomeScan competition binding assay across human kinases; per cent of control at 10 and 100 uM
HIPK1 = HIPK1 (Homo sapiens, UniProt Q86Z02); conditions: competition binding, % of control
Method in brief: (§1)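 Binding is expressed as %control, normalised between positive and negative control signals. The compound (levosimendan) was tested at 10 μM and 100 μM in the DiscoverX KinomeScan competition binding format against human kinases.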

EPHB4 = EPHB4 (Homo sapiens, UniProt P54760); conditions: competition binding, % of control; read-out: Percent Control (100 uM Levosimendan)
Method in brief: as §1

GRK3 = GRK3 (Homo sapiens, UniProt P35626); conditions: competition binding, % of control; read-out: Percent Control (100 uM Levosimendan)
Method in brief: as §1

BIKE = target: T1, BIKE (Homo sapiens, UniProt Q9NSY1); conditions: competition binding, % of control
T1 construct: gene BMP2K
Method in brief: as §1

FLT3 = FLT3 (Homo sapiens, UniProt P36888); conditions: competition binding, % of control
Method in brief: as §1

DMPK2 = target: T2, DMPK2 (Homo sapiens, UniProt Q6DT37); conditions: competition binding, % of control; read-out: Percent Control (100 uM Levosimendan)
T2 construct: gene CDC42BPG
Method in brief: as §1

MEK2 = target: T3, MEK2 (Homo sapiens, UniProt P36507); conditions: competition binding, % of control; read-out: Percent Control (100 uM Levosimendan)
T3 construct: gene MAP2K2
Method in brief: as §1

ALK(L1196M) = ALK(L1196M) (Homo sapiens, UniProt Q9UM73, L1196M); conditions: competition binding, % of control; read-out: Percent Control (100 uM Levosimendan)
Method in brief: as §1

RET(M918T) = RET(M918T) (Homo sapiens, UniProt P07949, M918T); conditions: competition binding, % of control; read-out: Percent Control (100 uM Levosimendan)
Method in brief: as §1

EGFR(G719C) = EGFR(G719C) (Homo sapiens, UniProt P00533, G719C); conditions: competition binding, % of control
Method in brief: as §1

MAP4K2 = MAP4K2 (Homo sapiens, UniProt Q12851); conditions: competition binding, % of control; read-out: Percent Control (100 uM Levosimendan)
Method in brief: as §1

YSK4 = target: T4, YSK4 (Homo sapiens, UniProt Q56UN5); conditions: competition binding, % of control
T4 construct: gene MAP3K19
Method in brief: as §1

BUB1 = BUB1 (Homo sapiens, UniProt O43683); conditions: competition binding, % of control
Method in brief: as §1

[1] = target: T5, TYK2(JH2domain-pseudokinase) (Homo sapiens, UniProt P29597); conditions: competition binding, % of control
T5 construct: JH2domain-pseudokinase
Method in brief: as §1

PDGFRA = PDGFRA (Homo sapiens, UniProt P16234); conditions: competition binding, % of control
Method in brief: as §1

TRKB = target: T6, TRKB (Homo sapiens, UniProt Q16620); conditions: competition binding, % of control; read-out: Percent Control (100 uM Levosimendan)
T6 construct: gene NTRK2
Method in brief: as §1

NEK11 = NEK11 (Homo sapiens, UniProt Q8NG66); conditions: competition binding, % of control; read-out: Percent Control (100 uM Levosimendan)
Method in brief: as §1

IKK-alpha = target: T7, IKK-alpha (Homo sapiens, UniProt O15111); conditions: competition binding, % of control; read-out: Percent Control (100 uM Levosimendan)
T7 construct: gene CHUK
Method in brief: as §1

[2] = read-out: Percent Control (10 uM Levosimendan)
[3] = read-out: Percent Control (100 uM Levosimendan)

BUB1, sequence (O43683 whole entry): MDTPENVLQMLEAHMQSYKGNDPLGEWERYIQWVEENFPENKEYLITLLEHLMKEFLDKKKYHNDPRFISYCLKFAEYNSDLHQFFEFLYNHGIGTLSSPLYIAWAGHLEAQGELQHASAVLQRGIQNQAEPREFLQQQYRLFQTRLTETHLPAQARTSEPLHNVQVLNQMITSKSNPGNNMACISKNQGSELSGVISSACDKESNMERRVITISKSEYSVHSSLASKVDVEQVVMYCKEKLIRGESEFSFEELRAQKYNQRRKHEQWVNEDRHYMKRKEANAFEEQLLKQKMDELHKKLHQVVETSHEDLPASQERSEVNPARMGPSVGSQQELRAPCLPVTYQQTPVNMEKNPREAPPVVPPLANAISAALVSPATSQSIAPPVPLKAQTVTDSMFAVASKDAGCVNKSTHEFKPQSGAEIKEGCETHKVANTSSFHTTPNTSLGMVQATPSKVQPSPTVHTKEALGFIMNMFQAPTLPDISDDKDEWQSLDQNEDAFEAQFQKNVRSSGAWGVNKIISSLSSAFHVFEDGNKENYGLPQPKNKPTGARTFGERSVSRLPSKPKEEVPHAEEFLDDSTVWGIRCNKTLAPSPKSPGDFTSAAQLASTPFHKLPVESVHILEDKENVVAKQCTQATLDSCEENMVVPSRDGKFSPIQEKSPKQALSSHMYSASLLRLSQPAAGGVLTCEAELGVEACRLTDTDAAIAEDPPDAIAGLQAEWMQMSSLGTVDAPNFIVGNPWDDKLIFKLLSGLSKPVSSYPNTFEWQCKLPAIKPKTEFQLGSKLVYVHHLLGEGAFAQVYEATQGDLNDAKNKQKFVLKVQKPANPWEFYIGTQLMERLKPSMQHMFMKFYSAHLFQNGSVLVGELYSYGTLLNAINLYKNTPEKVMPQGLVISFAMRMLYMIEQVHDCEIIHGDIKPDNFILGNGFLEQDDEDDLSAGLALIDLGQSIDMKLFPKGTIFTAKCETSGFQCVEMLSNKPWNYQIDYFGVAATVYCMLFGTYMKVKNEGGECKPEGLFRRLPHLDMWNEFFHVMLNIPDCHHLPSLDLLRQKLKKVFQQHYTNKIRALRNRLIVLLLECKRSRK
PDGFRA, sequence (P16234 whole entry): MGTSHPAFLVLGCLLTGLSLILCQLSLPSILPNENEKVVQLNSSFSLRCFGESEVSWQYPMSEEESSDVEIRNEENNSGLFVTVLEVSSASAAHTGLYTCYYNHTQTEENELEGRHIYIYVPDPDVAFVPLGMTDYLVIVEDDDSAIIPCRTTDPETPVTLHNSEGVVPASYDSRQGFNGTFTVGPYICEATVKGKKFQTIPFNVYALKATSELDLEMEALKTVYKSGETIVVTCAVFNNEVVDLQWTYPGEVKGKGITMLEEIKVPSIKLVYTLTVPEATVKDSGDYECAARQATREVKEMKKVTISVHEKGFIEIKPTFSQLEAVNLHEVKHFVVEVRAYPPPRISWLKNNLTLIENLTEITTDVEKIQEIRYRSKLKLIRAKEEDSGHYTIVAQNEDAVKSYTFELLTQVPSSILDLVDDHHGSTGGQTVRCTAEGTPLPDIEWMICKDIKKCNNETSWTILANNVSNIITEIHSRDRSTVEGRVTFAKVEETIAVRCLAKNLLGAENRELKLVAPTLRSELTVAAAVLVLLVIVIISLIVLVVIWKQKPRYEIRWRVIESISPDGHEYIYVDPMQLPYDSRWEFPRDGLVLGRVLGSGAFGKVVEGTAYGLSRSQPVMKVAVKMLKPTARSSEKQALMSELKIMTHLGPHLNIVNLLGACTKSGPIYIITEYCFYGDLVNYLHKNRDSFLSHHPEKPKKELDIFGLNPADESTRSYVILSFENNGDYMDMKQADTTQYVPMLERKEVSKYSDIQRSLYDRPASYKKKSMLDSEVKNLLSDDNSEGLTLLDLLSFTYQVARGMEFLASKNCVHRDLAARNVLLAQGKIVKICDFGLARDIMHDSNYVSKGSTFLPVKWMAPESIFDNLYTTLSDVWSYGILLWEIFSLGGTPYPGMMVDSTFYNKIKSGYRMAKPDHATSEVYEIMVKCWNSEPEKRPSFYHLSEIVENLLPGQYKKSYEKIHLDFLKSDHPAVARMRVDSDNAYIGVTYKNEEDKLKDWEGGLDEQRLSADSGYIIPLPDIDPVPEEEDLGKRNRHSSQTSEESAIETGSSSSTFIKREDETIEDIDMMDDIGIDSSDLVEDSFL
T5 sequence (P29597 whole entry): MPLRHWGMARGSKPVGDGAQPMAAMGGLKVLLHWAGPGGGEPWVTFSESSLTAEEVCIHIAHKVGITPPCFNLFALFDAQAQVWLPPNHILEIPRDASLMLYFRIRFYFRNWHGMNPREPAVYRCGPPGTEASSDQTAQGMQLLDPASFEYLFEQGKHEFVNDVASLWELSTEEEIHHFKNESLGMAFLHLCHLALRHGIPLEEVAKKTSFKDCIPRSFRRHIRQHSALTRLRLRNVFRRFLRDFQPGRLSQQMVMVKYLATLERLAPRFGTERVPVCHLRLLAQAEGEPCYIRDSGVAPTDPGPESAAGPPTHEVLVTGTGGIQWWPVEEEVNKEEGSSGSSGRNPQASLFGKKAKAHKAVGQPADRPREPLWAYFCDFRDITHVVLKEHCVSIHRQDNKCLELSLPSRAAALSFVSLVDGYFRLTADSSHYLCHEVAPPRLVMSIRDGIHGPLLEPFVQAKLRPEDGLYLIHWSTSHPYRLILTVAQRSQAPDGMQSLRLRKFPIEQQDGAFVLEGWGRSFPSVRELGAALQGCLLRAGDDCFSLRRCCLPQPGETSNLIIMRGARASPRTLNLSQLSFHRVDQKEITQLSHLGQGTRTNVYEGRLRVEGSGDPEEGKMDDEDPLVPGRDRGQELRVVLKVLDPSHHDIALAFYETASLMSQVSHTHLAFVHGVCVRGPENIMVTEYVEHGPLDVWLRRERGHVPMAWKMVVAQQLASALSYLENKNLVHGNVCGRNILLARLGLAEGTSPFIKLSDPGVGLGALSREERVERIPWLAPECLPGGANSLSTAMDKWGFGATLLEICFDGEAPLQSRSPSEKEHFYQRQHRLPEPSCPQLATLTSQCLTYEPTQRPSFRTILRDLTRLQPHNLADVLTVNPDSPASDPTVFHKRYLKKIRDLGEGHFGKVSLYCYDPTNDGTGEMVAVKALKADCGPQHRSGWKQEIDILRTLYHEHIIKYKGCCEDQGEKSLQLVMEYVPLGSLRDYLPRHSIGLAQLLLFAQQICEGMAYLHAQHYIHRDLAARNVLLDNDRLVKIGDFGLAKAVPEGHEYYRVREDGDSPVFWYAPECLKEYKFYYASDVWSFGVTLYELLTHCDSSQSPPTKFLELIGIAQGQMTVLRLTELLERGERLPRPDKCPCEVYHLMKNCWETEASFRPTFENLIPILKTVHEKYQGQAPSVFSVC
EGFR(G719C), sequence (P00533 whole entry G719C): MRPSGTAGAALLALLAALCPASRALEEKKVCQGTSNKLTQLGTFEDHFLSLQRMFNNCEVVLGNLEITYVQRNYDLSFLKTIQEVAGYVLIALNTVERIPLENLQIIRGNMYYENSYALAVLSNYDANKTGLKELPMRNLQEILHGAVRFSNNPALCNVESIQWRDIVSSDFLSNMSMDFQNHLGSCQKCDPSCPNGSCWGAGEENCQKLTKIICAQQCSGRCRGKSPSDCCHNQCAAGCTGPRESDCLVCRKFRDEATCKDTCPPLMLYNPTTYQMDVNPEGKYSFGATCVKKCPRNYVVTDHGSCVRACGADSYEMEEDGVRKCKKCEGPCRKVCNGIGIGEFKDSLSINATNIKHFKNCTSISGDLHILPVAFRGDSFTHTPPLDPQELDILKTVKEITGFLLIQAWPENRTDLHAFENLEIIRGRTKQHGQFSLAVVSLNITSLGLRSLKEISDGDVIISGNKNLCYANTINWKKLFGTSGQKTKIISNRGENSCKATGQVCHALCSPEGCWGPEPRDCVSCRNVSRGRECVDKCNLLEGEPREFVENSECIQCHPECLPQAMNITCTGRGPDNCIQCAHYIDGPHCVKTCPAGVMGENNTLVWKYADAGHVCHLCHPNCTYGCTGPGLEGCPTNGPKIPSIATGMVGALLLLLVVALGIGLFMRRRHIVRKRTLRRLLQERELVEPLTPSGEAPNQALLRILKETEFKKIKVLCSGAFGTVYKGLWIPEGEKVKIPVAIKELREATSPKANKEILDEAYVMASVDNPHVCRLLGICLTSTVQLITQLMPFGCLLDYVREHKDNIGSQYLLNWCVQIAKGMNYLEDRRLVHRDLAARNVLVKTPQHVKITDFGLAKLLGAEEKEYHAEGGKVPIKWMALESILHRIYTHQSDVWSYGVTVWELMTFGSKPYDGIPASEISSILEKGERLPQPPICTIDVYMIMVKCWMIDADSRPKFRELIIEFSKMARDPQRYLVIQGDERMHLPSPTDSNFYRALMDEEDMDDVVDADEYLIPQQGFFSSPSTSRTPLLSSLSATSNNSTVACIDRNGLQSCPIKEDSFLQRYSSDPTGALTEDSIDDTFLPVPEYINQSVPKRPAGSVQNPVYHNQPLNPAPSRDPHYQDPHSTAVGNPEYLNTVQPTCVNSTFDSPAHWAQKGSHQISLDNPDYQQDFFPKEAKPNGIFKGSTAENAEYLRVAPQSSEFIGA
T3 sequence (P36507 whole entry): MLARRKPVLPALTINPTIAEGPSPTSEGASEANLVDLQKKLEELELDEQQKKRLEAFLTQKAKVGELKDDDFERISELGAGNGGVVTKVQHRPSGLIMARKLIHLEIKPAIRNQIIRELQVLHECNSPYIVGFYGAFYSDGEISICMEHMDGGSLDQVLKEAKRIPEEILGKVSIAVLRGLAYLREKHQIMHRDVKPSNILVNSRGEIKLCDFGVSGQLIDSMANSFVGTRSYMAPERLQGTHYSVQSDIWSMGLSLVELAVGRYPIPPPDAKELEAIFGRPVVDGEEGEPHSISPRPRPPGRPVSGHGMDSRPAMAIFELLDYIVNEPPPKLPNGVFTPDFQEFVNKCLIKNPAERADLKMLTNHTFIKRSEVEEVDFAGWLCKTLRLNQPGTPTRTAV

C[C@@H]1CC(=O)NN=C1c1ccc(NN=C(C#N)C#N)cc1 [levosimendan]
remaining binding at 10 µM (HIPK1; [2]): 95%
remaining binding at 100 µM (HIPK1; [3]): 20%
remaining binding at 100 µM (EPHB4): 85%
remaining binding at 100 µM (GRK3): 100%
remaining binding at 10 µM (BIKE; [2]): 47%
remaining binding at 100 µM (BIKE; [3]): 2.2%
remaining binding at 10 µM (FLT3; [2]): 24%
remaining binding at 100 µM (FLT3; [3]): 0.9%
remaining binding at 100 µM (DMPK2): 70%
remaining binding at 100 µM (MEK2): 70%
remaining binding at 100 µM (ALK(L1196M)): 72%
remaining binding at 100 µM (RET(M918T)): 90%
remaining binding at 10 µM (EGFR(G719C); [2]): 49%
remaining binding at 100 µM (EGFR(G719C); [3]): 10%
remaining binding at 100 µM (MAP4K2): 100%
remaining binding at 10 µM (YSK4; [2]): 48%
remaining binding at 100 µM (YSK4; [3]): 10%
remaining binding at 10 µM (BUB1; [2]): 94%
remaining binding at 100 µM (BUB1; [3]): 53%
remaining binding at 10 µM [1, 2]: 100%
remaining binding at 100 µM [1, 3]: 11%
remaining binding at 10 µM (PDGFRA; [2]): 73%
remaining binding at 100 µM (PDGFRA; [3]): 37%
remaining binding at 100 µM (TRKB): 81%
remaining binding at 100 µM (NEK11): 100%
remaining binding at 100 µM (IKK-alpha): 59%
